Test results published in US20070172957A1, “Methods of identifying anti-inflammatory macrolides” (TAISHO PHARMACEUTICAL CO., LTD., priority 2004, published 2007).

Assays:
A549 cells [1] = test: A549 microarray comparing macrolides with arachidonic acid pathway inhibitors, with IL-1β stimulation (Appendix C, Tables 6-9), and correlation analysis; format: cell-based; conditions: for Total # Differential Genes (95% confidence): A549, threshold 1.3; for FADS1 expression: A549 cells, microarray
Source text: One inhibitor, triacsin C, acts on AA biosynthesis by inhibiting arachidonyl CoA synthetases, blocking the incorporation of free AA into phospholipids. Triacsin C is reasonably specific for AA compared to other fatty acids. However, triacsin C structurally resembles AA so it also may interfere with other steps in the AA pathway. Indomethacin is an inhibitor of COX1 and COX2 enzyme activities and therefore specifically blocks metabolism of AA into prostaglandins. […] It inhibits transcription of PLA2, and transcriptionally and post-transcriptionally regulates COX1 and COX2 activities. Dexamethasone has additional effects unrelated to AA through binding with the glucocorticoid receptor to glucocortcoid response elements.
A549 cells were pre-incubated overnight (17 hours) with macrolides (10 μM FMA-9045, 50 μM clarithromycin, 50 μM roxithromycin, 50 μM josamycin) and 15 μM triacsin C, and pre-incubated 2 hours with 100 nM indomethacin and 100 nM dexamethasone. All cells then were stimulated for 4 hours with IL-1β, because the activation of PLA2 and downstream signaling events generally requires an inflammatory stimulus. The various treatment conditions are shown below in Table 4. Following macrolide and inhibitor pre-treatment and IL-1 stimulation, the cells were lysed, total RNA was collected, and the poly-A+ mRNA fraction was purified. The resulting microarray data (Appendix C) were analyzed using the methods described in the Examples above.
The tables in Appendix C represent the effects of the arachidonic acid pathway inhibitors (“AA pathway inhibitors”) and the effects of the macrolides (“IL1+macrolide effects”). […] In both tables in Appendix C, the genes that meet this criterion (≧1.3 min fold change) are indicated in bold.
Quantitative analysis was done to determine how well the responses to the different AA pathway inhibitors correlated. The correlation values were assigned a p-value to provide statistical confidence to the correlation value. Correlation between experiments, across all spots showing good detection, was assessed by cosine vector angle to generate the data shown in Tables 7-9. A correlation coefficient close to one indicates strong correlation, whereas a value near zero indicates no correlation. P-values for each correlation coefficient were estimated based on a Fisher permutation test. In this test, each spot's expression ratios were randomly re-ordered across experiments and the degree of correlation between experiments was then reassessed. This was done repeatedly.

[2] = Plasma AUC of clarithromycin after single administration to mice; format: in vivo; conditions: C57black/6, mouse, oral, 50 mg/kg singly administered, read-out: plasma AUC0-8
Method: (§1) Administration of clarithromycin was carried out orally at the rate of 25, 50 or 100 […] twice daily (morning and evening) during the tobacco smoke exposure period. The plasma AUC0-8 of clarithromycin obtained when 50 mg/kg was singly administered to the mice was 2.677 μg·hr/ml while the plasma AUC0-8 of clarithromycin obtained when 200 mg of clarithromycin was singly administered to a normal human subject was 8.98 μg·hr/ml. The former concentration was substantially lower than the latter one and was an adequate concentration to be used clinically.

THP-1 cells = test: Microarray of differentially expressed genes in THP-1 cells, +/- LPS, +/- Clarithromycin or FMA9045 (Appendix B, Appendix F); format: cell-based; conditions: for Total # Differential Genes (95% confidence): THP-1, min fold change threshold 1.5 (Clari), 1.3 (FMA)
Source text: (§2) The data for each cell line (A549 and THP-1) are presented in Appendices A and B. For each cell line, the data for all of the hybridizations are represented together in the same table. For each hybridization, there are two columns: the weighted mean ratio (wtd mean ratio) and the minimum fold change (min fold change). The “min fold change” represents the minimum change in expression that meets the 95% confidence threshold. It can be estimated from the log ratio and standard deviation, assuming that the uncertainty in the ratio is normally distributed. […] See also Cheng Li and Wing Hung Wong, “Model-based analysis of oligonucleotide arrays: model validation, design issues and standard error application,” Genome Biology 2001 2(8):research0032.1-0032.11 (published 3 Aug. 2001).
(§3) The analysis method to generate these tables was similar for A549 and THP-1, cells. […] It is important to note that the fold change threshold is an absolute number, and the direction of change (increased or decreased expression) must be determined by the looking at the weighted mean ratio. The significance threshold criteria are included in parentheses in each “min fold change” column. The weighted mean ratios representing significant differentials (95% confidence, p value <0.05) are in bold. The “Spot IDs” correspond to publicly available cDNA sequences for the region of the gene represented at that spot on the microarray chip.
(§4) For the A549 and THP-1 cell lines (Appendix A and B, respectively), the first table for each cell line (“total differentials”) represents all of the genes that show differential expression in at least one of the hybridizations. The second table for A549 and THP-1 cells (“drug effects, sum ≧4.5” and “drug effects, sum ≧5”, respectively) has an additional final column, “sum of min fold change.” This column represents the sum of the minimum fold changes for all of the groups except the stimulus alone. This column was used to rank the genes in order of the greatest global drug effect, independent of whether the drug used was Clarithromycin or FMA9045 and independent of stimulus effect.
For THP-1 cells, a sum min fold change ≧5.0 was used as the threshold for ranking the most highly regulated drug effects. In both tables in Appendix B, the genes that meet this criterion (sum ≧5) are in bold and in italics. A larger sum min fold change threshold was used for THP-1 cells, because the macrolide response in this cell line was more robust than that in A549 cells.
The influence of a macrolide compound on the level of expression of the gene of the material related to inflammatory disease of the lung is summarized in Appendix F. In Appendix F, ‘+/−Clari, wtd means’ denotes gene induction (suppression) when clarithromycin is added to THP-1 cells, and the larger the figure, the more the gene is expressed. Furthermore, ‘+LPS+/−Clari, wtd means’ denotes gene induction (suppression) when clarithromycin is added to LSP-stimulated THP-1 cells, and the smaller the figure, the more the gene expression is suppressed.

[3] = Plasma AUC of clarithromycin after single administration to a normal human subject; format: in vivo; conditions: 200 mg singly administered, read-out: plasma AUC0-8
Method: as §1

A549 cells [4] = test: Microarray of differentially expressed genes in A549 cells, +/- IL-1β, +/- Clarithromycin or FMA9045 (Appendix A); format: cell-based; conditions: for Total # Differential Genes (95% confidence): A549, min fold change threshold 1.3
Source text: as §2, §3, §4
As noted above, a sum min fold change ≧4.5 was used as the threshold for ranking the most highly regulated drug effects. In both tables in Appendix A, the genes that meet this criterion (sum ≧4.5) are in bold, and those genes that are bold and italics are the most highly regulated genes and have a min fold change ≧5.0.

[5] = IL1 vs IL1 + drug, macrolides 50 μM (FMA 10 μM), triacsin C 15 μM, indomethacin and dexamethasone 100 nM
[6] = A549 + IL-1β, of the genes regulated by the labelled drug
[7] = IL1 + Triacsin vs IL1 + Triacsin + macrolide 50 μM

Compound: CO[C@@H]1[C@@H](O[C@@H]2O[C@H](C)[C@@H](O[C@H]3C[C@@](C)(O)[C@@H](OC(=O)CC(C)C)[C@H](C)O3)[C@H](N(C)C)[C@H]2O)[C@@H](CC=O)C[C@@H](C)[C@@H](O)/C=C/C=C/C[C@@H](C)OC(=O)C[C@H]1OC(C)=O [josamycin]
- Total # Differential Genes (95% confidence) (A549 cells [1]; [5]): 73

Compound: CC[C@H]1OC(=O)[C@H](C)[C@@H](O[C@H]2C[C@@](C)(OC)[C@@H](O)[C@H](C)O2)[C@H](C)[C@@H](O[C@@H]2O[C@H](C)C[C@H](N(C)C)[C@H]2O)[C@](C)(OC)C[C@@H](C)C(=O)[C@H](C)[C@@H](O)[C@]1(C)O [clarithromycin]
- AUC(0-t) [2]: 2680 ng·h/mL
- expression of SERPINB3 gene (THP-1 cells; Category 1, Appendix F): enhancing the expression
- Total # Differential Genes (95% confidence) (THP-1 cells; +/- drug alone): 127
- Total # Differential Genes (95% confidence) (THP-1 cells; LPS +/- drug): 120
- LPS +/− clari, wtd mean ratio (THP-1 cells; THP-1 cells with LPS, gene given in each table row): 0.9
- LPS +/− clari, wtd mean ratio (THP-1 cells; THP-1 cells, LPS stimulated, with vs without clari, gene/spot = table row): 0.9
- Clari treated, wtd mean ratio (THP-1 cells; THP-1 cells, no LPS, gene given in each table row): 0.9
- Clari treated, wtd mean ratio (THP-1 cells; THP-1 cells, microarray expression ratio, gene/spot = table row): 0.9
- expression of proteinase genes (MMP12, MMP9, MMP19, cathepsin K, cathepsin C) (THP-1 cells; induced during inflammatory stimulation, Category 2): suppresses the expression
- expression of the chemokine gene (THP-1 cells; induced during inflammatory stimulation, Category 3): suppresses expression
- AUC(0-t) [3]: 8980 ng·h/mL
- Total # Differential Genes (95% confidence) (A549 cells [4]; +/- drug alone): 117
- Total # Differential Genes (95% confidence) (A549 cells [4]; IL-1 +/- drug): 127
- IL1b +/− clari, wtd mean ratio (A549 cells [4]; A549 cells with IL1b stimulation, microarray expression ratio, gene = SpotID/GeneSymbol): 0.9
- Clari treated, wtd mean ratio (A549 cells [4]; A549 cells, Clari treated, no IL1, expression ratio of the gene/spot of the table line): 0.9
- IL1b +/− clari, wtd mean ratio (A549 cells [4]; A549 cells, IL1b stimulated, with vs without clari, gene/spot of the table line): 0.9
- Clari treated, wtd mean ratio (A549 cells [4]; A549 cells, microarray expression ratio, gene = SpotID/GeneSymbol): 0.9
- Clari treated, wtd mean ratio (A549 cells [4]; A549 cells, per microarray spot/gene, Clari treated, no IL1): 0.9
- IL1b +/− clari, wtd mean ratio (A549 cells [4]; A549 cells, per microarray spot/gene, IL1b stimulated, with vs without clari): 0.9
- Number of differentially expressed genes also differential in response to indomethacin (A549 cells [1]; [6]): 25
- Number of differentially expressed genes also differential in response to triacsin C (A549 cells [1]; [6]): Forty-two
- Total # Differential Genes (95% confidence) (A549 cells [1]; [7]): 4
- Total # Differential Genes (95% confidence) (A549 cells [1]; [5]): 54
- FADS1 expression (A549 cells [1]): differentially expressed

Compound: CC[C@H]1OC(=O)[C@H](C)[C@@H](O[C@H]2C[C@@](C)(OC)[C@@H](O)[C@H](C)O2)[C@H](C)[C@@H](O[C@@H]2O[C@H](C)C[C@H](N(C)C)[C@H]2O)[C@](C)(O)C[C@@H](C)/C(=N\OCOCCOC)[C@H](C)[C@@H](O)[C@]1(C)O [roxithromycin]
- Total # Differential Genes (95% confidence) (A549 cells [1]; [7]): 7
- Total # Differential Genes (95% confidence) (A549 cells [1]; [5]): 65
- FADS1 expression (A549 cells [1]): differentially expressed
